Measurements reported in patent US5093475A (priority 1989, dated 1992).
Structures can show the parent of a compound that is named as a salt. Marks after values point to notes of the source that are not given here.

How the values were obtained:
[1] = Hydrolysis of the 2-iminothiolane rings in PBS (pH 7.2), monitored at 248nm; assay type: physicochemical; conditions: 25° C.
Source text: a. The rate of hydrolysis of the 2-iminothiolane rings in PBS (pH 7.2), monitored at 248nm.

[2] = Rate of reaction of the 2-iminothiolanes with glycine, coupled with DTNB, 412nm; assay type: physicochemical; conditions: 160 mM glycine, 0.5 mM DTNB, PBS pH 7.2; 25° C.
Description: b. The rate of reaction of the 2-iminothiolanes with 160 mM glycine in PBS (pH 7.2), monitored by coupling the reaction with 0.5 mM DTNB and following the change in absorbance at 412nm.

791 mAb = assay: Rate of reaction of the 2-iminothiolanes with 791 mAb, coupled with DTNB, 412nm; conditions: 0.5 mM 2-iminothiolane, 20 μM 791 mAb, 2.5 mM DTNB, pH 7.5; 25° C.
Description: c. The rate of reaction of the 2-iminothiolanes (0.5 mM) with 791 mAb (20 μM), as monitored by coupling the reaction with 2.5 mM DTNB in 0.1 M NaPO4, 0.1 M NaCl, pH 7.5, and monitoring the change in absorbance at 412nm.

[3] = Glutathione-induced TNB release from 791/iminothiolane/TNB (disulfide stability); assay type: physicochemical; conditions: for Reaction rate, TNB, k × 10^5 (initial rate of TNB release from 791/linker/TNB): ca. 10 μM protein-S-S-TNB, 200 μM glutathione, PBS, 0.5 mM EDTA, pH 7.25, 25° C.; for Increase in Disulfide Stability Relative to: 2IT / Increase in Disulfide Stability Relative to: SPDP: ratio of TNB release rate constants; for Increase in Disulfide Stability Relative to: SPDP: vs 791/SPDP/TNB
Description: d. The initial rate of TNB release from 791/iminothiolane/TNB induced by glutathione. Samples contained ca. 10 μM of protein-S-S-TNB and 200 μM of glutathione in PBS containing 0.5 mM EDTA, pH 7.25, and were monitored at 412nm. FIG. 1 presents the results graphically.
The relative increase in disulfide stability was also compared to 791/SPDP/TNB, and was determined as for 2IT.
791/SPDP/TNB was prepared by derivatizing 791 mAb with SPDP following conventional procedures and conditions, removing any byproducts by gel filtration, releasing the PDP group with 1 mM DTT, and then reacting the liberated sulfhydryl with DTNB. Following gel filtration, the rate of TNB release was measured as in Example 19d above.

[4] = Thorpe et al., Cancer Res. 47:5924-5931, 1987; cited from earlier work
[5] = cited from earlier work

| Structure (SMILES) | Reaction rate, Hydrolysis [1] | Reaction rate, Glycine, k × 10^3 [2] | Reaction rate, 791, k × 10^5 (791 mAb) | rate constant for unsubstituted 2-iminothiolane ([3]; TNB release from 791/linker/TNB by glutathione) | Reaction rate, TNB, k × 10^5 (initial rate of TNB release from 791/linker/TNB) [3] | Increase in Disulfide Stability Relative to: 2IT [3] | Increase in Disulfide Stability Relative to: SPDP [3] | stability of disulfide bond in vivo, in words [4] | solubility in water, in words (background) [5] |
| --- | --- | --- | --- | --- | --- | --- | --- | --- | --- |
| Cl.N=C1CCCS1 [Compound 2IT, 2-iminothiolane hydrochloride, reference compound] | 10.2 %/hr | 5.3 s^-1 (k × 10^3) | 5.0 s^-1 (k × 10^5) | 9.42×10^-3 | 942.0 s^-1 (k × 10^5) | 1.0 | 0.3 | unstable in vivo | – |
| CC(SS(=O)(=O)O)c1ccc(C(=O)ON2C(=O)CCC2=O)cc1 (stereo not drawn) [SMBT, sodium S-4-succinimidyloxycarbonyl-α-methyl benzyl thiosulfate] | – | – | – | – | – | – | – | appear to have more stable disulfide linkages in vivo | low solubility in water |
| CC(SSc1ccccn1)c1ccc(C(=O)ON2C(=O)CCC2=O)cc1 (stereo not drawn) [SMPT, 4-succinimidyloxycarbonyl-α-methyl-α-(2-pyridyldithio)-toluene] | – | – | – | – | – | – | – | appear to have more stable disulfide linkages in vivo | low solubility in water |
| O=C(CCSSc1ccccn1)ON1C(=O)CCC1=O [SPDP, N-succinimidyl-3-(2-pyridyldithio)propionate, reference compound] | – | – | – | – | – | 3.6 | 1.0 | unstable in vivo | – |
| CC1(C)CCC(=N)S1.Cl [dimethyl-2IT, 5,5-Dimethyl-2-iminothiolane hydrochloride] | 6.9 %/hr | 3.5 s^-1 (k × 10^3) | 4.6 s^-1 (k × 10^5) | – | 0.13 s^-1 (k × 10^5) | 7246.0 | 2046.0 | – | – |
| CC1CCC(=N)S1.Cl (stereo not drawn) [methyl-2IT, 5-Methyl-2-iminothiolane hydrochloride] | 5.4 %/hr | 4.8 s^-1 (k × 10^3) | 4.0 s^-1 (k × 10^5) | – | 75.3 s^-1 (k × 10^5) | 12.5 | 3.5 | – | – |
| Cl.N=C1CCC(c2ccccc2)S1 (stereo not drawn) [phenyl-2IT, 5-Phenyl-2-iminothiolane hydrochloride] | 1.5 %/hr | 5.2 s^-1 (k × 10^3) | 8.8 s^-1 (k × 10^5) | – | 45.8 s^-1 (k × 10^5) | 20.6 | 5.8 | – | – |
| N=C1CC2CCCCC2S1 (stereo not drawn) [ring-2IT, hydrochloride] | 13.4 %/hr | 3.4 s^-1 (k × 10^3) | 5.6 s^-1 (k × 10^5) | – | 82.1 s^-1 (k × 10^5) | 11.5 | 3.2 | – | – |
| Cl.N=C1CCC2(CCCCC2)S1 [spiro-2IT, 2-Imino-1-thiaspiro[4.5]decane hydrochloride] | 5.6 %/hr | 3.0 s^-1 (k × 10^3) | 4.6 s^-1 (k × 10^5) | – | 0.11 s^-1 (k × 10^5) | 8564.0 | 2418.0 | – | – |
| CC(C)(C)C1CCC(=N)S1.Cl (stereo not drawn) [t-butyl-2IT, 5-t-Butyl-2-iminothiolane hydrochloride] | 6.1 %/hr | 4.4 s^-1 (k × 10^3) | 7.4 s^-1 (k × 10^5) | – | 16.4 s^-1 (k × 10^5) | 57.4 | 16.2 | – | – |
